Results as given in patent publication US20250257060A1, “OXADIAZOLE COMPOUND, PHARMACEUTICAL COMPOSITION COMPRISING SAME, AND USE THEREOF” (SUZHOU GENHOUSE BIO CO., LTD., priority 2022, published 2025).
Like-named read-outs stand apart in the source and are kept apart here.

Columns and labels:
[1] = molecular target: HDAC6 (Homo sapiens (Human), UniProt Q9UBN7); experiment: HDAC6 enzymatic activity assay; type: biochemical
Protocol: The inhibitory activity of the compounds of the present application against HDAC6 was evaluated by an enzymatic activity assay. HDAC6 (Abcam), test compounds, and a 20 µM substrate solution (Ac-GAK(Ac)-AMC) were each added to a 384-well plate, and the plate was incubated at 37° C. for 30 min. […] and […] were added, and the plate was incubated at room temperature for 15 min. […] IC50 was obtained by fitting using GraphPadPrism 7.0 software.

[2] = Brain-to-blood drug concentration ratio of mice; type: in vivo; conditions: mouse, 5 mg/kg PO, 2 h; for Kp at 2 h: brain/plasma
Protocol: On the day of administration, mice were weighed for actual body weight and the administration volume was calculated. In each group of 9 mice, the compound was administered by single intravenous (IV) injection or intragastric (PO) administration. Whole blood samples were collected via the orbit at prescribed time points. After blood sample collection, the samples were immediately transferred to labeled commercial sample tubes containing K2-EDTA (0.85-1.15 mg), followed by centrifugation (3200×g, 4° C., 10 min) and plasma collection. The plasma was transferred to a pre-cooled centrifuge tube, frozen in dry ice, and stored in an ultra-low temperature freezer at −60° C. or lower until the LC-MS/MS analysis. 20 μL of a plasma sample or brain tissue homogenate was taken and 80 μL of an internal standard solution (50 ng/mL solution of propafenone in acetonitrile) was added. The plate was sealed with a film sealer at 165° C., shaken on a micro oscillator (maximum vibration speed) for 10 min, and centrifuged at 4000 rpm for 20 min using a low-speed benchtop centrifuge, 10 μL of supernatant was transferred and 90 μL of acetonitrile was added. The mixture was vortexed and mixed well, and then the plate was sealed with the film sealer at 165° C. After the mixture was vortexed and mixed well, 1 μL of supernatant was taken for LC-MS/MS analysis. Plasma drug concentration data for the compounds were processed in a non-compartmental model using WinNonlin Version 6.3 (Pharsight, Mountain View, CA) pharmacokinetic software. The relevant pharmacokinetic parameters were calculated by a linear logarithmic trapezoid method.
Data processing: brain-to-blood drug concentration ratio of mice at the same time point=drug concentration in brain tissue/drug concentration in plasma

[3] = Pharmacokinetic test in mice (IV and PO); type: in vivo, BALB/c mice; conditions: for Cmax / AUC(0-inf) / AUC(0-t) / MRT inf / Vd / Tmax: BALB/c, mouse, plasma; for MRT inf: read-out: MRT(0-∞); for Vd: read-out: Vz
Protocol: In this example, the pharmacokinetic behavior of the compounds after intravenous injection (IV) and intragastric (PO) administration in BALB/c mice was tested.
On the day of administration, mice were weighed for actual body weight and the administration volume was calculated. Each compound was tested in two groups with 3 mice in each group, one group administered by single intravenous injection and the other group of mice by single intragastric administration. Whole blood samples were collected via the orbit at prescribed time points (0.25 h, 0.5 h, 1 h, 2 h, 4 h, 8 h, and 24 h after administration). After blood sample collection, the samples were immediately transferred to labeled commercial sample tubes containing K2-EDTA (0.85-1.15 mg), followed by centrifugation (3200×g, 4° C., 10 min) and plasma collection. The plasma was transferred to a pre-cooled centrifuge tube, frozen in dry ice, and stored in an ultra-low temperature freezer at −60° C. or lower until the LC-MS/MS analysis.
Plasma concentrations were determined by a LC-MS/MS method. Plasma drug concentration data for compounds 1 and 2 were processed in a non-compartmental model using WinNonlin Version 6.3 (Pharsight, Mountain View, CA) pharmacokinetic software. The relevant pharmacokinetic parameters were calculated by a linear logarithmic trapezoid method.

[4] = Phase I metabolic stability in human liver microsomes (HLMs); type: in vitro ADME, humans; conditions: HLM
Protocol: (§1) Phase I metabolic stability of the test compounds in liver microsomes of CD-1 mice (MLMs), Sprague-Dawley rats (RLMs), beagle dogs (DLMs), cynomolgus monkeys (CLMs), and humans (HLMs) was evaluated.
(§2) The animal and human liver microsomes used in the test system were purchased from Xenotech, Corning, or other qualified suppliers and stored in a freezer at a temperature below −60° C. prior to use.
(§3) The test samples and control compounds were separately incubated with animal and human liver microsomes at 37±1° C. for a period of incubation time up to 60 min. The samples were removed at the indicated time points, and the reaction was stopped with acetonitrile or other organic solvents containing an internal standard. After centrifugation, the resulting supernatants were assayed by liquid chromatography-tandem mass spectrometry (LC-MS/MS).
(§4) 73.21 g of dipotassium hydrogenphosphate trihydrate and 10.78 g of potassium dihydrogenphosphate were dissolved in 4000 mL of ultrapure water. The solution was adjusted to pH 7.40±0.10 with 10% phosphoric acid or 1 M potassium hydroxide to make a final concentration of 100 mM.
(§5) The test sample powder was prepared into a stock solution at a certain concentration with DMSO or other organic solvents, which was then further diluted with a proper organic solvent.
(§6) Microsomes of each species were diluted into a 2× working solution with a 100 mM potassium phosphate buffer. The final concentration of the microsomes in the reaction system was 0.5 mg/mL.
(§7) An appropriate amount of nicotinamide adenine dinucleotide phosphate (NADP) and isocitric acid (ISO) powder was weighed out, dissolved in a magnesium chloride solution, and shaken and mixed well. An appropriate amount of isocitrate dehydrogenase (IDH) was added, and the mixture was mixed well by gently turning upside down. The final concentrations in the reaction system were: 1 mM NADP, 1 mM magnesium chloride, 6 mM ISO, and 1 unit/mL IDH.
(§8) Incubation was performed in a 96-well plate. Eight incubation plates were prepared and designated T0, T5, T15, T30, T45, T60, Blank60, and NCF60, respectively. The first 6 plates corresponded to reaction time points of 0, 5, 15, 30, 45, and 60 min, respectively. No test sample or control compound was added to the Blank60 plate, and samples were taken after 60 min of incubation. In the NCF60 plate, incubation was performed for 60 min using the potassium phosphate buffer instead of the NADPH regeneration system solution. Three replicates were made for samples in all conditions.
(§9) The microsomes and the test sample or control compound were mixed, and then the incubation plates Blank60, T5, T15, T30, T45, and T60 except for TO and NCF60 were placed in a 37° C. water bath for pre-incubation for about 10 min. In the incubation plate TO, a stop solution was first added, followed by addition of the NADPH regeneration system working solution, and 98 μL of the potassium phosphate buffer was added to each sample well of the incubation plate NCF60 to initiate the reaction. After the pre-incubations of the incubation plates Blank60, T5, T15, T30, T45, and T60 were completed, 98 μL of the NADPH regeneration system working solution was added to each sample well to initiate the reaction. The reaction temperature was 37±1° C., the final volume of the reaction was 200 μL, and the reaction system included 0.5 mg/mL microsomes, […], 1 mM NADP, 6 mM ISO, and 1 unit/mL IDH.
(§10) At 5 min, 15 min, 30 min, 45 min, and 60 min, a cold stop solution containing an internal standard was added to the reaction plate to stop the reaction.
(§11) All the reaction plates after the reaction was stopped were shaken well and centrifuged at 3220×g at 4° C. for 20 min. After the supernatant was diluted according to a certain proportion, LC-MS/MS analysis was performed.
(§12) Sample analysis was performed by the liquid chromatography-tandem mass spectrometry (LC-MS/MS) method without standard curves and quality control samples. […]

[5] = Phase I metabolic stability in mouse liver microsomes (MLMs); type: in vitro ADME, CD-1 mice; conditions: MLM
Protocol: as §1, §2, §3, §4, §5, §6, §7, §8, §9, §10, §11, §12

[6] = Phase I metabolic stability in rat liver microsomes (RLMs); type: in vitro ADME, Sprague-Dawley rats; conditions: RLM
Protocol: as §1, §2, §3, §4, §5, §6, §7, §8, §9, §10, §11, §12

[7] = system: acetylation level of α-tubulin in HCT116 cells; experiment: Assay on acetylation level of α-tubulin, HCT116 cells; type: cell-based; conditions: Homo sapiens, HCT-116, 6 h
Protocol: A375/HCT116/HCC827 cells at a logarithmic growth phase were taken, digested with a […] (trypsin), centrifuged, counted, and plated in a 96-well plate at an appropriate cell density (30,000 cells/well) at 100 µL/well, and an appropriate amount of PBS was added around the plate for water sealing. The next day, the cells were treated with the compounds at different concentrations (starting at 100 μM, 5-fold dilution, 9 concentration gradients). After 6 h, the medium was pipetted out and the cells were washed twice with 100 μL of PBST. The cells were then immobilized in 4% paraformaldehyde, and the plate was incubated at room temperature for 20 min. The stationary liquid was discarded and the cells were washed with PBST. 150 μL of special blocking buffer (containing 1% Triton-100) was added to each well for blocking at room temperature for 2 h, and the plate was washed with PBS to remove excess blocking buffer. α-tubulin (DM1A) mouse mAb and acetyl-α-tubulin (Lys40) (D20G3) XP rabbit mAb were diluted at a 1:2000 ratio with a blocking buffer containing 0.033% Triton-100. The dilutions were added to the 96-well plate and the plate was incubated overnight at 4° C. Meanwhile, a blank control group was set. The next day, the plate was washed twice with PBST. Secondary anti-mouse IgG (H+L) (DyLight™ 680 conjugate) and anti-rabbit IgG (H+L) (DyLight™ 800 conjugate) were diluted at a 1:2000 ratio with a blocking buffer containing 0.033% Triton-100. The dilutions were added to a 96-well plate and the plate was incubated at room temperature for 2 h. The plate was washed twice with PBST and once with PBS. Fluorescence signals at 700 nm and 800 nm were detected with a Li-COR Odyssey two-color near-infrared laser imager.

[8] = brain, read-out: Brain drug concentration
[9] = plasma, read-out: Blood drug concentration
[10] = buffer instead of NADPH regeneration system, 60 min
[11] = human, liver microsomes, pH 7.4
[12] = CD-1, mouse, liver microsomes, pH 7.4
[13] = Sprague-Dawley, rat, liver microsomes, pH 7.4

HDAC6, sequence (Q9UBN7 whole entry): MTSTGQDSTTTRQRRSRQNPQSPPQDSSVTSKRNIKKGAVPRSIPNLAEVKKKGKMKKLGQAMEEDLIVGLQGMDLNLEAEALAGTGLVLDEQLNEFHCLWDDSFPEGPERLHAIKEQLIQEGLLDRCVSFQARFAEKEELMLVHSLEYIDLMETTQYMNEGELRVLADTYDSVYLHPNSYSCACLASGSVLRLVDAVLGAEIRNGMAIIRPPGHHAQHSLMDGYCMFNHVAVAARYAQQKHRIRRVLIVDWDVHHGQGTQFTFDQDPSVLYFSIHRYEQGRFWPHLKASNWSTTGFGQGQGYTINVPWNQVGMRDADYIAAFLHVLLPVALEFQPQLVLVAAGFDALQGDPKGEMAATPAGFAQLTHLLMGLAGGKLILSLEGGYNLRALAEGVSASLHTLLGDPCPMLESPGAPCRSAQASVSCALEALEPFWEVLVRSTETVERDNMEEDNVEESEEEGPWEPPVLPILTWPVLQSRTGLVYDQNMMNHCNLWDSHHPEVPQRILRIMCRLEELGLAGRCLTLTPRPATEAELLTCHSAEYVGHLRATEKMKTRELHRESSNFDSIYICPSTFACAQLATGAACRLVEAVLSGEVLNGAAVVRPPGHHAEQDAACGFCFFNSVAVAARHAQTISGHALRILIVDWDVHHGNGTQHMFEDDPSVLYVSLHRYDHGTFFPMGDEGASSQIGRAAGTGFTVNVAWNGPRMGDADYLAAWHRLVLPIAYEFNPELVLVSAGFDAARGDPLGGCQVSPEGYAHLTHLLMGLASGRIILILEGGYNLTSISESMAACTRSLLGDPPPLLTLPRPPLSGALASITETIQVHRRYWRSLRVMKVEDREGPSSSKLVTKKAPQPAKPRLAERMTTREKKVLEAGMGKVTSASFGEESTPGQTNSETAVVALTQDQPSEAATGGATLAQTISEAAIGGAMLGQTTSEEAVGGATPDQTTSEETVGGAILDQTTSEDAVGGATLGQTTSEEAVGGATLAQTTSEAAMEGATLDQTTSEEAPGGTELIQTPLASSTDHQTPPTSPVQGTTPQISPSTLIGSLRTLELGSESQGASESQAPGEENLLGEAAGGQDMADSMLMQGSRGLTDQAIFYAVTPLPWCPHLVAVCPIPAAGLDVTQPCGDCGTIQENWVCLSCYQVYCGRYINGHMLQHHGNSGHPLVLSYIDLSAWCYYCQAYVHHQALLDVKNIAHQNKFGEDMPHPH

## CN(C)C(=O)N[C@@H]1CCCC[C@H]1N1Cc2ccc(-c3nnc(C(F)F)o3)cc2S1(=O)=O [Compound 93]
[1]
  IC50: 133 nM
[2]; [8]
  concentration at 2 h: 27 ng/mL
[2]
  Kp at 2 h: 0.11
[2]; [9]
  concentration at 2 h: 252 ng/mL
[3]; po, 5 mg/kg, read-out: C0/Cmax
  Cmax: 3.41 µM
[3]; mice, IV 1 mg/kg
  AUC(0-inf): 1.08 µM·h
  AUC(0-t): 1.07 µM·h
  MRT inf: 0.6 h
  Vd: 1.9 L/kg
  CLz: 33.3 mL/min/kg
  t½z: 0.7 h
[3]; mice, IV 1 mg/kg (C0)
  Cmax: 2.11 µM
[3]; mice, PO 5 mg/kg
  AUC(0-inf): 4.57 µM·h
  AUC(0-t): 4.56 µM·h
  Tmax: 0.5 h
  MRT inf: 1.2 h
  F: 84.4%
  t½z: 0.7 h

## O=S1(=O)c2cc(-c3nnc(C(F)F)o3)ccc2CN1C(c1ccccn1)[C@H](O)c1ccccn1 (some centres unmarked) [Compound 83]
[4]; [10]
  Remaining rate (NCF = 60 min): 84.68%
[4]; with NADPH, 60 min
  Remaining rate (T = 60 min): 82.70%
[4]; [11]
  CLint scaled at 1 µM: 6.43 mL/min/kg
  half-life at 1 M: 4.51 h
[5]; [12]
  CLint scaled at 1 µM: 41.4 mL/min/kg
  half-life at 1 M: 2.2 h
[5]; [10]
  Remaining rate (NCF = 60 min): 84.39%
[5]; with NADPH, 60 min
  Remaining rate (T = 60 min): 72.27%
[6]; [10]
  Remaining rate (NCF = 60 min): 88.49%
[6]; with NADPH, 60 min
  Remaining rate (T = 60 min): 36.99%
[6]; [13]
  CLint scaled at 1 µM: 58.6 mL/min/kg
  half-life at 1 M: 0.706 h
[3]; po, 10 mg/kg, read-out: C0/Cmax
  Cmax: 12 µM
[3]; mice, IV 2 mg/kg
  AUC(0-inf): 8.78 µM·h
  AUC(0-t): 8.61 µM·h
  MRT inf: 2.06 h
  Vd: 1.01 L/kg
  CLz: 7.82 mL/min/kg
  t½z: 1.493 h
[3]; mice, IV 2 mg/kg (C0)
  Cmax: 5.27 µM
[3]; mice, PO 10 mg/kg
  AUC(0-inf): 63.7 µM·h
  AUC(0-t): 50.5 µM·h
  Tmax: 0.5 h
  MRT inf: 4.57 h
  F: 117.4%
  t½z: 3.323 h

## O=C(N[C@@H]1CCOC[C@H]1N1Cc2ccc(-c3nnc(C(F)F)o3)cc2S1(=O)=O)C(F)(F)C(F)(F)F [Compound 66]
[7]
  EC50: 322 nM

## O=S(=O)(N[C@@H]1CCCC[C@H]1N1Cc2ccc(-c3nnc(C(F)F)o3)cc2S1(=O)=O)C1CC1 [Compound 4]
[1]
  IC50: 154 nM
[2]; [8]
  concentration at 2 h: 190 ng/mL
[2]
  Kp at 2 h: 0.08
[2]; [9]
  concentration at 2 h: 2260 ng/mL

## Cn1cc([C@@H](O)[C@H](c2cnn(C)c2)N2Cc3ccc(-c4nnc(C(F)F)o4)cc3S2(=O)=O)cn1 (single isomer, unassigned) [Compound 95j-B-A]
[1]
  IC50: 66.8 nM

## Cn1cc([C@@H](O)[C@H](c2cnn(C)c2)N2Cc3ccc(-c4nnc(C(F)F)o4)cc3S2(=O)=O)cn1 (single isomer, unassigned) [Compound 95j-B]
[1]
  IC50: 29.9 nM

## Cn1cc([C@H]([C@@H](O)c2ccccc2)N2Cc3ccc(-c4nnc(C(F)F)o4)cc3S2(=O)=O)cn1 (single isomer, unassigned) [Compound 79i-B]
[1]
  IC50: 75.9 nM

## O=C(N[C@@H]1CCOC[C@H]1N1Cc2ccc(-c3nnc(C(F)F)o3)cc2S1(=O)=O)C1(C(F)(F)F)CC1 [Compound 65]
[7]
  EC50: 467 nM
